{
  "source": "patent US8802082B2",
  "about": "“Rhodamine derivatives for photodynamic diagnosis and treatment” (Université de Montreal, priority 1999, dated 2014)",
  "key": {"[1]": {"system": "CEM T cell acute lymphoblastic leukemia cell line", "test": "Phototoxicity of TH9402, limiting dilution assay of clonogenic cells, CEM admixed with irradiated PBMC", "format": "cell-based", "conditions": "10 μM TH9402 40 min, 90 min dye-free, 5 joules/cm^2, LDA 12-14 days", "protocol": "(§1) T cells represent the most important population of immune cells present in the peripheral blood. […] Phototoxicity was also evaluated in parallel against the chronic myelogenous leukemia cell line K562, that had been used in U.S. Pat. Nos. 5,556,992 and 5,773,460. The CEM T cell acute lymphoblastic leukemia cell line and K562 chronic myelogeneous leukemia cell line (Lozzio, B. B. and Lozzio, C. B. (1979) Cancer Res., 3(6): 363-370) were obtained from the American Type Culture Collection (ATCC, 12301 Parklawn Drive, Rockville, Md. 20852 USA) under the accession number CCL-119 and CCL-243. Cultures were maintained at 37° C. in a humidified incubator with an atmosphere of 95% air and 5% CO2. […] Before each experiment, cell viability was assessed by trypan blue exclusion. […]\n(§2) To assess the photochemotherapeutic potential and the in vitro phototoxicity of 4,5-dibromorhodamine 123 hydrobromide (TH9402), the T cell line CEM and the leukemic line K562 admixed with normal irradiated PBMC were incubated with TH9402 and exposed to 5 joules/cm^2 of light (as described above). […] Growth at each serial dilution was assessed in an “all-or-nothing” (positive or negative) fashion under an inverted phase microscope. […]"}, "resting lymphocytes": {"system": "resting lymphocytes", "test": "Cellular content/efflux of TH9402 by flow cytometry, resting lymphocytes", "format": "cell-based, human", "protocol": "TH9402 cellular content in resting and activated lymphocytes was evaluated by flow-cytometry, since the intensity of TH9402 (green) fluorescence correlates with the cellular content in TH9402. Briefly, 10^6 cells/ml, previously activated or not with PHA, were incubated in X-vivo-5 medium supplemented with 2.5% human AB serum and 10 μM TH9402 for 40 minutes. These cells were washed two times with X-vivo medium supplemented with 10% AB serum and cells analysed by flow cytometry 30, 50, 70, 90 and 110 min after the end of the TH9402 incorporation period. […] Since cellular concentration of TH9402 correlates with the extent of cell elimination, the high concentration of TH9402 maintained in activated lymphocytes explains their sensitivity to photodynamic therapy. In contrast, the rapid efflux of TH9402 from resting lymphocytes should explain preservation of their proliferative activity.\nIn order to identify the mechanism responsible for the differential retention of TH9402 between activated and resting lymphocytes, cyclosporin-A was used to block the multidrug transporter (P-gp 170). These cells were incubated with 10 μM TH9402 for 8 minutes, and washed with medium containing 1 μg/ml cyclosporin-A or medium alone. TH9402 retention was subsequently evaluated by flow-cytometry (green fluorescence) (FIG. 5). […] The functional impairment of such a pump in activated lymphocytes could explain the high levels of phototoxicity observed in these cells."}, "[2]": {"system": "K562 chronic myelogeneous leukemia cell line", "test": "Phototoxicity of TH9402, limiting dilution assay of clonogenic cells, K562 admixed with irradiated PBMC", "format": "cell-based", "conditions": "10 μM TH9402 40 min, 90 min dye-free, 5 joules/cm^2, LDA 12-14 days", "protocol": "as §1, §2"}, "[3]": {"system": "cells from subject A, activated against B", "test": "Allogeneic T cell activation (one-way mixed lymphocyte culture), PDT, then proliferation assay", "format": "cell-based, human", "conditions": "TH9402 PDT, 5-day proliferation assay", "protocol": "Suspensions of cells were then incubated with 10 μM TH9402 for 40 minutes at 37° C. Cells were treated at 1×10^6 cells/mL in X-vivo-15 medium without phenol red (BioWhittaker, Walkersville, Md., USA) supplemented with 2,5% FBS. At the end of the incubation period, cells were spun down and the cell pellet resuspended in the X-vivo culture medium in the absence of dye, supplemented with 10% FBS. Cells were then placed in T-flasks (Corning, Cambridge, Mass., USA) for 90 minutes at 37° C. Following this second incubation in medium without dye, cells were exposed at 3 mm thickness to desired light energy, usually 5 joules/cm^2 using a previously described light delivery device (U.S. Pat. No. 5,798,523). Light energy was delivered using a fluorescent scanning lamp device with maximum wavelength around 512 nm.\nThe latter cells were serially diluted in order to obtain effector (treated cells) to target ratios ranging from 2:1 to 1:4 (4×10^4 treated effector cells/well) and incubated at 37° C. for 5 days. Eighteen hours prior to harvesting, 1 μCi of ^3H-thymidine was added. Cells were harvested using a PHD cell harvester (Cambridge Technology, Boston, Mass., USA). Radioactivity in the cell harvest was counted using a liquid scintillation counter (Beckman, Chicago, Ill., USA).\nAnother approach was used in this study to activate cells against specific target antigens. […]"}},
  "data": [
    {"smiles": "Br.COC(=O)c1ccccc1-c1c2ccc(=N)c(Br)c-2oc2c(Br)c(N)ccc12", "note": "[TH9402, 4,5-dibromorhodamine 123 (2-(4,5-dibromo-6-amino-3-imino-3H-xanthen-9-yl)-benzoic acid methyl ester) hydrobromide]", "values": [
      {"measurement": "CEM cells escaping elimination by phototherapy in comparison to the media only sample", "setting": "[1]", "result": "less than 0.1%"},
      {"measurement": "cells demonstrating low TH9402 fluorescence", "setting": "resting lymphocytes; 10 μM TH9402 40 min, 110 minutes after the end of the incorporation period", "result": "approximately 50%"},
      {"measurement": "TH9402 retention with cyclosporin A versus medium alone, resting lymphocytes", "setting": "resting lymphocytes; 10 μM TH9402, wash with 1 μg/ml cyclosporin-A, 110 minutes", "result": "higher retention"},
      {"measurement": "intensity of TH9402 fluorescence, resting versus activated lymphocytes", "setting": "resting lymphocytes; all time-points evaluated (30-110 min)", "result": "less for resting lymphocytes than for activated lymphocytes"},
      {"measurement": "K562 cells escaping elimination by phototherapy in comparison to the media only sample", "setting": "[2]", "result": "less than 0.1%"},
      {"measurement": "proliferation when exposed to C cells (mismatched unrelated)", "setting": "[3]", "result": "retained the capacity to proliferate"},
      {"measurement": "proliferation when reexposed to cells from B", "setting": "[3]", "result": "did not proliferate"}
    ]}
  ]
}
